Source: ChEMBL document CHEMBL5653631, “A Potent and Selective ULK1 Inhibitor Suppresses Autophagy and Sensitizes Cancer Cells to Nutrient Stress” (iScience, 2018)
Blank lines part the entries; values can stand above or below the compound they belong to.

What was measured:
[1] = biological target: T1, Serine/threonine-protein kinase PLK4 (Homo sapiens) (UniProt O00444); assay: Inhibition of human recombinant PLK4 at 500 nM in presence of ATP by radiometric assay relative to control
T1 sequence (whole entry): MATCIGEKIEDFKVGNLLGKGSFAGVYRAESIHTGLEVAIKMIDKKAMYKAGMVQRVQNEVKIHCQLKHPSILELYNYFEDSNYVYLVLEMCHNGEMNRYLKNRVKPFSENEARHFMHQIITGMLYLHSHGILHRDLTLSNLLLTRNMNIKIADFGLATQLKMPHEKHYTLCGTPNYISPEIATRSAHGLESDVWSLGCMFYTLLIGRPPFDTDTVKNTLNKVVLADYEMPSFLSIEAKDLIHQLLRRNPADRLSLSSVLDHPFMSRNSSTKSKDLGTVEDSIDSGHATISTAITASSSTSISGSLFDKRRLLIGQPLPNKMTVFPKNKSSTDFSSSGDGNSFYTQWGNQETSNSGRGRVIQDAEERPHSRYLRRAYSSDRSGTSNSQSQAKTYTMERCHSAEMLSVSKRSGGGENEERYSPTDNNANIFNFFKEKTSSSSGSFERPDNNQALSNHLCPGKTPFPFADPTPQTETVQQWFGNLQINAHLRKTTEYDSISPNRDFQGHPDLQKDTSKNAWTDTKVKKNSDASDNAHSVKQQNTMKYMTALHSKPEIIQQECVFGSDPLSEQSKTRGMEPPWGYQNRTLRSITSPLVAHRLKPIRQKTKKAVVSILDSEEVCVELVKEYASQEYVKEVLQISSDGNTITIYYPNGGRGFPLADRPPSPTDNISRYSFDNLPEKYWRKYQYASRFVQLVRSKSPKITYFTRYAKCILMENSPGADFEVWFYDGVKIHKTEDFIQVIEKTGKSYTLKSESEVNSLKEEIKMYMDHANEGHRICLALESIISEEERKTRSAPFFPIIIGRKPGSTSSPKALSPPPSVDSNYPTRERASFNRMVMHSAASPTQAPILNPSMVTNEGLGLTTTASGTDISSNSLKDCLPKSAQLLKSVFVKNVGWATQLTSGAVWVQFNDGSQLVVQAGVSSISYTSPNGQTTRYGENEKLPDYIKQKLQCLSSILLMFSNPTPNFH

[2] = biological target: Tyrosine-protein kinase FRK (Homo sapiens) (UniProt P42685); assay: Inhibition of human recombinant FRK at 500 nM related to control ULK1
[3] = biological target: Mitogen-activated protein kinase kinase kinase kinase 1 (Homo sapiens) (UniProt Q92918); assay: Inhibition of human recombinant HPK1 at 500 nM in presence of ATP by radiometric assay relative to control
Sequence of Mitogen-activated protein kinase kinase kinase kinase 1 (Homo sapiens) (Q92918 whole entry, looked up): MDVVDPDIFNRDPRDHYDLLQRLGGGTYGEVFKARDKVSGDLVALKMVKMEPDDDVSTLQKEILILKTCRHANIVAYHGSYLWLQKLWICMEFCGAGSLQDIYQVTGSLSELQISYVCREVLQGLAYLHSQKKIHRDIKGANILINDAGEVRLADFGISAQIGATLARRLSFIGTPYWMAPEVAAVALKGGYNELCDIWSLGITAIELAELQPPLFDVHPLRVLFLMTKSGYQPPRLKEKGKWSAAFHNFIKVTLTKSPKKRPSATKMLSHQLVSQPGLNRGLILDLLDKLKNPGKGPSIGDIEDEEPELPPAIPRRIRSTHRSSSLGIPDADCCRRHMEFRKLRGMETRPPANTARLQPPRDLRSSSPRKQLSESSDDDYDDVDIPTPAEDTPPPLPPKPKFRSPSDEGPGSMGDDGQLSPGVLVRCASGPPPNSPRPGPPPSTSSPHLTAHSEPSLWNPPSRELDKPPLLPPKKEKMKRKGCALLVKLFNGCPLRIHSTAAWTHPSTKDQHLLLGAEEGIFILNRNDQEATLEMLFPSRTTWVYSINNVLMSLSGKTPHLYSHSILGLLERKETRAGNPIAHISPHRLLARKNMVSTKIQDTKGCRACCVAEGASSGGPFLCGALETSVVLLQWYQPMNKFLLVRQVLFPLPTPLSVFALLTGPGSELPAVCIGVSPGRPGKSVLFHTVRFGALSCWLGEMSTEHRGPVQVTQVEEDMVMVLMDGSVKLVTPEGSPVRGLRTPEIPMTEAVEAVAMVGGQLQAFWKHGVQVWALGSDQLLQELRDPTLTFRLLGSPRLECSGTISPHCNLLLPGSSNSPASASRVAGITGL

[4] = biological target: Mitogen-activated protein kinase kinase kinase 10 (Homo sapiens) (UniProt Q02779); assay: Inhibition of human recombinant MLK2 at 40 nM related to control ULK1
[5] = biological target: NT-3 growth factor receptor (Homo sapiens) (UniProt Q16288); assay: Inhibition of human recombinant TRKC at 40 nM related to control ULK1
Sequence of NT-3 growth factor receptor (Homo sapiens) (Q16288 32-839 limits assumed): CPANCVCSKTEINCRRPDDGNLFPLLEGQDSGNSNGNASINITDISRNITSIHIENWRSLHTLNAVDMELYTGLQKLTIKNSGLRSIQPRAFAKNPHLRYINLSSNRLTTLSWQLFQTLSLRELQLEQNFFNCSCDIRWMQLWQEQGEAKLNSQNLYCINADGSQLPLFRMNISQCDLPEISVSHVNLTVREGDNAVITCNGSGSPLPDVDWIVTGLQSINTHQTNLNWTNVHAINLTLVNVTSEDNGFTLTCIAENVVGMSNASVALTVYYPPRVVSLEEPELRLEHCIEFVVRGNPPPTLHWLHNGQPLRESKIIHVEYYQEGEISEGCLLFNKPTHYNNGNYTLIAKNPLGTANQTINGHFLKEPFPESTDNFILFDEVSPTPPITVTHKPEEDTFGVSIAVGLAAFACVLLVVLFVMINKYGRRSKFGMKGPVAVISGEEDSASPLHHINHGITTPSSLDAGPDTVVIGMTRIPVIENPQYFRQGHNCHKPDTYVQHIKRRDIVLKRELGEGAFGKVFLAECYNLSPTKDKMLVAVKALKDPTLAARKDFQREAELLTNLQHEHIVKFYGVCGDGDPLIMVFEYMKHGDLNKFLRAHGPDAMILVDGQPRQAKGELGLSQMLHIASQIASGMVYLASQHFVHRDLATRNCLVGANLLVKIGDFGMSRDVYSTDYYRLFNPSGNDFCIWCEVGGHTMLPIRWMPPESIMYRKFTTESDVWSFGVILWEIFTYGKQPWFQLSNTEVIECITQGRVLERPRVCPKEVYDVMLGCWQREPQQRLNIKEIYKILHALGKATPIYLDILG

[6] = biological target: Ribosomal protein S6 kinase alpha-6 (Homo sapiens) (UniProt Q9UK32); assay: Inhibition of human recombinant RSK4 at 40 nM in presence of ATP by radiometric assay relative to control
Sequence of Ribosomal protein S6 kinase alpha-6 (Homo sapiens) (Q9UK32 whole entry): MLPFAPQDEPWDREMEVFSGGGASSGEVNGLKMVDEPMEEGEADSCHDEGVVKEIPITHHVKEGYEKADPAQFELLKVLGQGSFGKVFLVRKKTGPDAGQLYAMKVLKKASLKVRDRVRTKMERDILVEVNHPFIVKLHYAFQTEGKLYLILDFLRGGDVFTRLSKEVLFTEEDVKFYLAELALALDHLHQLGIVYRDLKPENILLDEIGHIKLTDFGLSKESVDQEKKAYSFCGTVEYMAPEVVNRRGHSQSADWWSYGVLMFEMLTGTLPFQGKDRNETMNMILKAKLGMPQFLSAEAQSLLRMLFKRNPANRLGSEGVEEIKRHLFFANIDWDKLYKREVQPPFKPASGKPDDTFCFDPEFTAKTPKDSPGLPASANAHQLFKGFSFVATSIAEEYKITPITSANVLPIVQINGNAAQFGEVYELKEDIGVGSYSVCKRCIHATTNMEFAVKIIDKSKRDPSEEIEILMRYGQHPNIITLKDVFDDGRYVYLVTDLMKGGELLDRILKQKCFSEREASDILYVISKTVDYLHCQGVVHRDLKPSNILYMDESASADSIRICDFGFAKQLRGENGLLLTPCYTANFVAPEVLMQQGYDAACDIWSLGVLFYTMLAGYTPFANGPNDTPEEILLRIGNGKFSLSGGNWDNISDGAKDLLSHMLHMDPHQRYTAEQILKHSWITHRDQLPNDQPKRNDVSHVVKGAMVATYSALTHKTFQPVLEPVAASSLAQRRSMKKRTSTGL

Homo sapiens = organism: Homo sapiens; assay: Inhibition of human recombinant p70S6K at 40 nM related to control ULK1
[7] = biological target: ALK tyrosine kinase receptor (Homo sapiens) (UniProt Q9UM73); assay: Inhibition of human recombinant ALK at 15 nM related to control ULK1
Sequence of ALK tyrosine kinase receptor (Homo sapiens) (Q9UM73 19-1620 limits assumed): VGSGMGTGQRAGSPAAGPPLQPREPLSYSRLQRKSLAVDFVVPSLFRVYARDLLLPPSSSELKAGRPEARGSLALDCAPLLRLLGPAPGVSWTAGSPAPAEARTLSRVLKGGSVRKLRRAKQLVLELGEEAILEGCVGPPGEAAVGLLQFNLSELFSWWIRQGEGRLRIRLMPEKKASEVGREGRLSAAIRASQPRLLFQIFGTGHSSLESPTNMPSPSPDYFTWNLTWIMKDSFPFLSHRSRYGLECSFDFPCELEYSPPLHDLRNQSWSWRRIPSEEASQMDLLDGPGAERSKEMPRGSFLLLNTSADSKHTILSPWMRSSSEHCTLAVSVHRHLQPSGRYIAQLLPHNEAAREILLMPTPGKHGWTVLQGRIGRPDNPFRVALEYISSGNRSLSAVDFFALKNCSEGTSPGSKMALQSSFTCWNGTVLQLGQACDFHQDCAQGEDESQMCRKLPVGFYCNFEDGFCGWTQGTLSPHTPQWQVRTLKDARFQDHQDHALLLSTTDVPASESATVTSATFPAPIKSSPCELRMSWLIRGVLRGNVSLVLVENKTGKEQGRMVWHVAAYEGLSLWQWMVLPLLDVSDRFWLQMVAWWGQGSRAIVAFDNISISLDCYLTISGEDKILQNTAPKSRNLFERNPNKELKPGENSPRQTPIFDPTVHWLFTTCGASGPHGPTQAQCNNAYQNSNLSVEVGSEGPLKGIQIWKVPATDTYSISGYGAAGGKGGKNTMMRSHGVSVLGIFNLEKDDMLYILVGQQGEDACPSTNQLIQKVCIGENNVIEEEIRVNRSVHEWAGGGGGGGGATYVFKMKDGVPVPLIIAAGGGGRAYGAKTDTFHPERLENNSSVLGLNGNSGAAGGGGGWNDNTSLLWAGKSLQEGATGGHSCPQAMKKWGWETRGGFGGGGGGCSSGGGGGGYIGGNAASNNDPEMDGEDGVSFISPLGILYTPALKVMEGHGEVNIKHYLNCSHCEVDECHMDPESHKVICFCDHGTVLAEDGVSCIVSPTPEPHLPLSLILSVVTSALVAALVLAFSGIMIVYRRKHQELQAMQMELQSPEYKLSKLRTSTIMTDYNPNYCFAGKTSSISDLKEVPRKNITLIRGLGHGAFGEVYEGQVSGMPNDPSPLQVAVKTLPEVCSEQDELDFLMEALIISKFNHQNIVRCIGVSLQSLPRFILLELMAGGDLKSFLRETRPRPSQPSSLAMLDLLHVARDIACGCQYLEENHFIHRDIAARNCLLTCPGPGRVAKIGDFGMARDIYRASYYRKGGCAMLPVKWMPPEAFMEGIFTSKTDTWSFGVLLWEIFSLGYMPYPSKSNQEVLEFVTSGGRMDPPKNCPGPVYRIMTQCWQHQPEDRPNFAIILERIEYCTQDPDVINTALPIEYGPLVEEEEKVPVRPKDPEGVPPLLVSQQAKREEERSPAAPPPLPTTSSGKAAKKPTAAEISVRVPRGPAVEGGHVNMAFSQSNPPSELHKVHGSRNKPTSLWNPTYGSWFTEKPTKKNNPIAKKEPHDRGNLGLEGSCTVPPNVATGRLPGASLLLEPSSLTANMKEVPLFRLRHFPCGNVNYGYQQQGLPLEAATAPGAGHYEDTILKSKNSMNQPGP

[8] = biological target: T2, Mitogen-activated protein kinase kinase kinase 3 (Homo sapiens) (UniProt Q99759); assay: Inhibition of human recombinant MAP3K3 at 15 nM in presence of ATP by radiometric assay relative to control
T2 sequence (whole entry): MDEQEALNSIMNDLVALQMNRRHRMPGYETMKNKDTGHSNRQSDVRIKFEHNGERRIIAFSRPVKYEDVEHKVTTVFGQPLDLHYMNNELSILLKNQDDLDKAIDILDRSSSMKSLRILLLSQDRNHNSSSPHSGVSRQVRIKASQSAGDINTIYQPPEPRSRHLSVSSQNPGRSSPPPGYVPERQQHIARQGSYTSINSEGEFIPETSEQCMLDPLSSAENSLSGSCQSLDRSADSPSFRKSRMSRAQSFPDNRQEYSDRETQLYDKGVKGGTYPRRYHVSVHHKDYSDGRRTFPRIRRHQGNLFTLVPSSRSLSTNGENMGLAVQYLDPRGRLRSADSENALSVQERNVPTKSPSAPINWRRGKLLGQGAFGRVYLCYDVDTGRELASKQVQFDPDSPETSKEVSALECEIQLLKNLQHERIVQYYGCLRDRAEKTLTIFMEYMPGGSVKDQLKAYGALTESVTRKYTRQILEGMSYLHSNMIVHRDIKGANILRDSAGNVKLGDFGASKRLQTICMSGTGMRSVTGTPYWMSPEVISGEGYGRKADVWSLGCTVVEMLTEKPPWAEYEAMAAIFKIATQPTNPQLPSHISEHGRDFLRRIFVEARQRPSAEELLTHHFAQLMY

[9] = biological target: Mast/stem cell growth factor receptor Kit (Homo sapiens) (UniProt P10721); assay: Inhibition of human recombinant KIT at 15 nM related to control ULK1
Sequence of Mast/stem cell growth factor receptor Kit (Homo sapiens) (P10721 whole entry): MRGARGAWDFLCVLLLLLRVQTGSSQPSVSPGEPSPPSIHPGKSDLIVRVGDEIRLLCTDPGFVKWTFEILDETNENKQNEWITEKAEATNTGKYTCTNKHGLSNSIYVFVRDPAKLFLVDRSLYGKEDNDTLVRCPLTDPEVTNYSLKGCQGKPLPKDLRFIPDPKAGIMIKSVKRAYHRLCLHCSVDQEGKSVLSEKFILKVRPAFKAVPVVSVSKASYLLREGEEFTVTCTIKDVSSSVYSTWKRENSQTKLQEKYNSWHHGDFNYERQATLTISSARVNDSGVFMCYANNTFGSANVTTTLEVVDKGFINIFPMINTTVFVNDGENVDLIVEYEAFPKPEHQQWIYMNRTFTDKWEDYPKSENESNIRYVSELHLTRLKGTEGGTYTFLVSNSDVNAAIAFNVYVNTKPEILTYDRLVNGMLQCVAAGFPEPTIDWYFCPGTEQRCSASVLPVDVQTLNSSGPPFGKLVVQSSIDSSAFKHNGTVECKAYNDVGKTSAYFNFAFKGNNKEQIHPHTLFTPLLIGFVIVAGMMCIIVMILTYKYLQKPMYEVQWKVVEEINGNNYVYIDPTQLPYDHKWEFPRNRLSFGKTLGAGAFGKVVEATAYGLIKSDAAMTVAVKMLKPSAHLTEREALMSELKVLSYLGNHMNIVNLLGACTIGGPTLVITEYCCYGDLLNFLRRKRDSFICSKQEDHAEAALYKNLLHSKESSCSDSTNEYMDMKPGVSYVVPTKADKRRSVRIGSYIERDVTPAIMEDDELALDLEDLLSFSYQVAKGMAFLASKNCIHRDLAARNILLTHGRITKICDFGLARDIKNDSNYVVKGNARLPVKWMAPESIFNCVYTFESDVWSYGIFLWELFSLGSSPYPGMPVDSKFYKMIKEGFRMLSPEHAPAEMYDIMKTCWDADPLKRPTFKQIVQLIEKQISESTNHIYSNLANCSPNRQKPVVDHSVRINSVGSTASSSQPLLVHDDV

[10] = biological target: T3, Tribbles homolog 2 (Homo sapiens) (UniProt Q92519); assay: Inhibition of human recombinant Trb2 at 15 nM in presence of ATP by radiometric assay relative to control
T3 sequence (whole entry): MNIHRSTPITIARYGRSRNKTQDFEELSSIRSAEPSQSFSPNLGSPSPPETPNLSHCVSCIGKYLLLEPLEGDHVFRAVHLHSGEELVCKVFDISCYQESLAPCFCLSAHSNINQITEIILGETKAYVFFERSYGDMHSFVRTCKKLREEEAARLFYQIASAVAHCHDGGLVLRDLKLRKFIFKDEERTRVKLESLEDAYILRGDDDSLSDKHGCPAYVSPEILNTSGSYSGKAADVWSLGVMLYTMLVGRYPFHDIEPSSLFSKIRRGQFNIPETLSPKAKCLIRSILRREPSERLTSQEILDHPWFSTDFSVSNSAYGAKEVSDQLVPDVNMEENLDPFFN

- inhibition [1]: 46%
- fold change (FC) [2]: 0.12
- inhibition [3]: 32%
Compound: CNC(=O)c1ccccc1Oc1nc(Nc2cc(OC)c(OC)c(OC)c2)ncc1Br

- fold change (FC) [4]: 0
- fold change (FC) [5]: 0
- inhibition [6]: 0%
- fold change (FC) (Homo sapiens): 0.03
Compound: O=C(N[C@@H](C1CC1)C(F)(F)F)c1cc(-c2cnn3cc(-c4ccc(F)cc4)cnc23)cs1

- fold change (FC) [7]: 0
- inhibition [8]: 3%
- fold change (FC) [9]: 0
- inhibition [10]: 36%
Compound: CC(C)[C@H](NC(=O)c1cc(-c2cnn3cc(-c4ccc(OCCN5CCCCC5)cc4)cnc23)cs1)C(F)(F)F
